Measured values: patent EP2692332A2, “Composition for the treatment of callus, corns, moles, telangiectasias, and psoriasis” (Unigroup ApS, priority 2012, dated 2014)

Assay type: physicochemical
Conditions: at higher concentrations than salicylic acid

SMILES: O=CO [formic acid]
- miscibility with ethyl lactate: miscible
